According to patent publication US8247211B2, “Glycopeptide antibiotics” (American Cyanamid Company, priority 2001, dated 2012):
≈ marks a conversion by molar mass, not a printed value.

Experiments:
Assay in all cases: In vitro antibacterial evaluation: minimum inhibitory concentration (MIC), broth dilution method
Assay type in all cases: cell-based
[1] = tested on: Enterococcus sp.
Experimental: (§1) The minimum inhibitory concentration (MIC), the lowest concentration of the antibiotic which inhibits growth of the test organism, is determined by the broth dilution method using Muller-Hinton II […] (Baltimore Biological Laboratories) following the recommendations of the National Committee for Clinical Laboratory Standards [Methods for dilution antimicrobial susceptibility tests for bacteria that grow aerobically, approved standard M7-A2, National Committee for Clinical Laboratory Standards, Villanova, Pa].
(§2) An inoculum level of 5×10^5 CFU/mL, and a range of antibiotic concentrations (64-0.06 μg/mL) is used. […] The test organisms include a spectrum of Gram-positive bacteria comprised of Staphylococcus sp., Streptococcus sp. and Enterococcus sp. These organisms include recent clinical isolates that are resistant to methicillin, penicillin and/or vancomycin.

[2] = tested on: Escherichia coli
Experimental: as §1, §2

[3] = tested on: Staphylococcus sp.; conditions: broth dilution, 18 hours at 35° C.
Experimental: as §1, §2

[4] = tested on: Streptococcus sp.
Experimental: as §1, §2

## Cc1cc(C2OCC3OC(OC4C(CO)OC(Oc5ccc(CC6NC(=O)C(C(C)c7ccccc7)NC(=O)CNC(=O)C(CO)NC(=O)C(C(O)C7CNC(=N)N7C7OC(CO)C(O)C(O)C7O)NC(=O)C(C(O)C7CNC(=N)N7)NC6=O)cc5)C(O)C4O)C(O)C(O)C3O2)ccc1[N+](=O)[O-] (stereo not drawn) [Example 151, Cyclo[glycyl-β-methylphenylalanyl-O-[4-O-[4,6-O-(3-methyl-4-nitrobenzylidene)hexonyranosyl]hexopyranosyl]tyrosyl-3-(2-iminoimidazolidin-4-yl)seryl-3-(3-hexopyranosyl-2-iminoimidazolidin-4-yl)serylseryl]]
[1]; strain ATCC 29212
  MIC Enterococcus faecalis (ATCC 29212): 32 µg/mL (≈ 22.2 µM)
[1]; strain GC 2242
  MIC Enterococcus faecalis (GC 2242): 16 µg/mL (≈ 11.1 µM)
[1]; strain GC 2243
  MIC Enterococcus faecium (GC 2243): 32 µg/mL (≈ 22.2 µM)
[1]; strain GC 2691
  MIC Enterococcus faecalis (GC 2691): 32 µg/mL (≈ 22.2 µM)
[1]; strain GC 3059
  MIC Enterococcus faecalis (GC 3059): 32 µg/mL (≈ 22.2 µM)
[1]; strain GC 4552
  MIC Enterococcus faecalis (GC 4552): 32 µg/mL (≈ 22.2 µM)
[1]; strain GC 4553
  MIC Enterococcus faecalis (GC 4553): 32 µg/mL (≈ 22.2 µM)
[1]; strain GC 4554
  MIC Enterococcus faecalis (GC 4554): 32 µg/mL (≈ 22.2 µM)
[1]; strain GC 4556
  MIC Enterococcus faecium (GC 4556): 32 µg/mL (≈ 22.2 µM)
[1]; strain GC 4557
  MIC Enterococcus faecium (GC 4557): 8 µg/mL (≈ 5.55 µM)
[1]; strain GC 4558
  MIC Enterococcus avium (GC 4558): 32 µg/mL (≈ 22.2 µM)
[1]; strain GC 6189
  MIC Enterococcus faecalis (GC 6189): 64 µg/mL (≈ 44.4 µM)
[2]; strain ATCC 25922
  MIC Escherichia coli (ATCC 25922): >64 µg/mL
[2]; strain GC 4559
  MIC Escherichia coli (GC 4559): >64 µg/mL
[2]; strain GC 4560
  MIC Escherichi coli (GC 4560): 2 µg/mL (≈ 1.39 µM)
[3]; 5×10^5 CFU/mL
  MIC Coagulase Negative Staphylococcus (GC 4547): 4 µg/mL (≈ 2.77 µM)
  MIC Coagulase Negative Staphylococcus (GC 4548): 4 µg/mL (≈ 2.77 µM)
  MIC Coagulase Negative Staphylococcus (GC 4549): 2 µg/mL (≈ 1.39 µM)
  MIC Coagulase Negative Staphylococcus (GC 4551): 8 µg/mL (≈ 5.55 µM)
  MIC Coagulase Negative Staphylococcus (GC 6257): 2 µg/mL (≈ 1.39 µM)
  MIC Staphylococcus aureus (ATCC 29213): 8 µg/mL (≈ 5.55 µM)
  MIC Staphylococcus aureus (GC 1131): 8 µg/mL (≈ 5.55 µM)
  MIC Staphylococcus aureus (GC 3051): 8 µg/mL (≈ 5.55 µM)
  MIC Staphylococcus aureus (GC 3053): 16 µg/mL (≈ 11.1 µM)
  MIC Staphylococcus aureus (GC 4541): 4 µg/mL (≈ 2.77 µM)
  MIC Staphylococcus aureus (GC 4542): 8 µg/mL (≈ 5.55 µM)
  MIC Staphylococcus aureus (GC 4544): 8 µg/mL (≈ 5.55 µM)
  MIC Staphylococcus aureus (GC 4545): 4 µg/mL (≈ 2.77 µM)
  MIC Staphylococcus aureus-SMITH (GC 4543): 8 µg/mL (≈ 5.55 µM)
  MIC Staphylococcus haemolyticus (GC 4546): 2 µg/mL (≈ 1.39 µM)
[3]; strain ATCC 29213
  MIC Staphylococcus aureus (ATCC 29213): 8 µg/mL (≈ 5.55 µM)
[3]; strain GC 1131
  MIC Staphylococcus aureus (GC 1131): 8 µg/mL (≈ 5.55 µM)
[3]; strain GC 3051
  MIC Staphylococcus aureus (GC 3051): 8 µg/mL (≈ 5.55 µM)
[3]; strain GC 3053
  MIC Staphylococcus aureus (GC 3053): 16 µg/mL (≈ 11.1 µM)
[3]; strain GC 4541
  MIC Staphylococcus aureus (GC 4541): 4 µg/mL (≈ 2.77 µM)
[3]; strain GC 4542
  MIC Staphylococcus aureus (GC 4542): 8 µg/mL (≈ 5.55 µM)
[3]; strain GC 4543
  MIC Staphylococcus aureus-SMITH (GC 4543): 8 µg/mL (≈ 5.55 µM)
[3]; strain GC 4544
  MIC Staphylococcus aureus (GC 4544): 8 µg/mL (≈ 5.55 µM)
[3]; strain GC 4545
  MIC Staphylococcus aureus (GC 4545): 4 µg/mL (≈ 2.77 µM)
[3]; strain GC 4546
  MIC Staphylococcus haemolyticus (GC 4546): 2 µg/mL (≈ 1.39 µM)
[3]; strain GC 4547
  MIC Coagulase Negative Staphylococcus (GC 4547): 4 µg/mL (≈ 2.77 µM)
[3]; strain GC 4548
  MIC Coagulase Negative Staphylococcus (GC 4548): 4 µg/mL (≈ 2.77 µM)
[3]; strain GC 4549
  MIC Coagulase Negative Staphylococcus (GC 4549): 2 µg/mL (≈ 1.39 µM)
[3]; strain GC 4551
  MIC Coagulase Negative Staphylococcus (GC 4551): 8 µg/mL (≈ 5.55 µM)
[3]; strain GC 6257
  MIC Coagulase Negative Staphylococcus (GC 6257): 2 µg/mL (≈ 1.39 µM)
[4]; strain ATCC 6301
  MIC Streptococcus pneumoniae (ATCC 6301): 1 µg/mL (≈ 0.693 µM)
[4]; strain GC 1894
  MIC Streptococcus pneumoniae (GC 1894): 0.5 µg/mL (≈ 0.347 µM)
[4]; strain GC 4563
  MIC Streptococcus pyogenes (GC 4563): 2 µg/mL (≈ 1.39 µM)
[4]; strain GC 4564
  MIC Streptococcus agalactiae (GC 4564): 4 µg/mL (≈ 2.77 µM)
[4]; strain GC 4565
  MIC Streptococcus pneumoniae (GC 4565): 1 µg/mL (≈ 0.693 µM)
